This is an account of results in US20250049787A1, “TREATMENT FOR ACUTE MYELOID LEUKEMIA OR LYMPHOMA” (UNIVERSITY HEALTH NETWORK, priority 2021, published 2025).

Molecules are shown by their SMILES.

The test has as its system MV-4-11 xenografts. Description: MV-4-11 xenograft model of human AML in CD-1 Nude mice. Format: in vivo. Particulars: 0.5 mg/kg IP, QW×4 vs vehicle; p=0.137. As for the experimental part: Female 8- to 10-week-old CD-1 Nude mice (Charles River Laboratories) with established MV-4-11 xenografts were treated for 21 days (n=8). MV-4-11 cells is a human AML cell line which endogenously expresses a Fms Related Receptor Tyrosine Kinase 3 (FLT3) internal tandem duplication (ITD) mutation. Animal weights were monitored daily, and tumor volume was measured three times per week. Tumor volume (mm^3) was defined as follows, length×width^2/2. Percentage tumor growth inhibition (% TGI) was defined as follows, 100×[1−(TVf,treated−TVi,treated)/(TVf,control−TVi,control)], where TVf is the average tumor volume at the end of study, and TVi is the average tumor volume at the initiation of treatment. In cases where tumor regression occurred, percentage tumor regression was defined as follows, 100×[1−(TVf,treated/TVi,treated)]. At the completion of the study, the mice were sacrificed by an anesthetic overdose. The Institutional Animal Care and Use Committee of the University Health Network approved all animal procedures. […] Data are represented as mean±SEM. p values were calculated using Student's/test.
(In general: A xenograft is tissue or cells of one species grown in another, often human tumour cells in immunodeficient mice.)

With `CC[C@]1(O)C[C@H]2CN(CCc3c([nH]c4ccccc34)[C@@](C(=O)OC)(c3cc4c(cc3OC)N(C=O)[C@H]3[C@@](O)(C(=O)OC)[C@H](OC(C)=O)[C@]5(CC)C=CCN6CC[C@]43[C@@H]65)C2)C1` [Vincristine, reference compound], the “Day 10 TGI (tumor growth inhibition)” value is given as 62%.
